The results in this text go back to patent publication US9265738B2, “Small molecule CMKLR1 antagonists in demyelinating disease” (The Board of Trustees of the Leland Stanford Junior …, priority 2012, dated 2016).

One data set concerns the target T1, CCR7 (Mus musculus, UniProt P47774).
T1 construct: endogenous in cells; host or cells: mouse splenocytes
T1 sequence (P47774 25-378): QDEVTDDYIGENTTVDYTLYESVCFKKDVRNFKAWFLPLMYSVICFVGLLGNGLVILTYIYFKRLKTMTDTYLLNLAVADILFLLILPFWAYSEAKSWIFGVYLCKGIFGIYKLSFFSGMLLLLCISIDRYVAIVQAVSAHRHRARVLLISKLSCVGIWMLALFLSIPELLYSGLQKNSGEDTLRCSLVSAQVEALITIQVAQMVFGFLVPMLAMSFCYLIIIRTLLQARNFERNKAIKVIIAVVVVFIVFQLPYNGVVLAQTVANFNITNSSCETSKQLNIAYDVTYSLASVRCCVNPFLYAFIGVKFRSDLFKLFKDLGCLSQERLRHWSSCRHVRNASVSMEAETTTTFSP
Kind of data set: CCR7-dependent mouse splenocyte migration to CCL19. It counts as cell-based. The settings on record: 100 nM CCL19. The protocol:
Splenocyte ctx and 100 nM CCL19 were used.

The next data set has as its target T2, mouse CMKLR1 (Mus musculus, UniProt P97468).
T2 construct: expressed in transfected cells; host or cells: L1.2 cells
T2 sequence (P97468 1-371): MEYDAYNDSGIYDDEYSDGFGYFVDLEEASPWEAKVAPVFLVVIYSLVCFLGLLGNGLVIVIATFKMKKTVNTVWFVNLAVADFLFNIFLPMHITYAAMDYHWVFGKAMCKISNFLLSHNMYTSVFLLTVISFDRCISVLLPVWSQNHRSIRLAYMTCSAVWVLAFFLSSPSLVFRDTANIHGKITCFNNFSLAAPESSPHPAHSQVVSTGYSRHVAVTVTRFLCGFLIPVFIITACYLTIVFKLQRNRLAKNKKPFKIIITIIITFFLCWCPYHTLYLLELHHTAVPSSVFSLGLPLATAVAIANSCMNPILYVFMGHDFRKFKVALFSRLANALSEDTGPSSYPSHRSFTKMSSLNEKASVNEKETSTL
Kind of data set: Inhibition of chemerin-triggered mouse CMKLR1/L1.2 cell migration. The settings on record: 1 nM chemerin. Type of data set: cell-based. The protocol:
2-(alpha-Naphthoyl)ethyltrimethyl ammonium iodide (aNETA) was tested for inhibition of chemerin-triggered mouse CMKLR1/L1.2 cell migration. mCMKLR1/L1.2 ctx and 1 nM chemerin were used. The assay was performed in 0.5% BSA, buffer (10% FBS), or 100% human serum.

Data set [1] has as its target T3, CXCR4 (Homo sapiens, UniProt P61073).
T3 construct: endogenous in cells; host or cells: MOLT-4 (human T-cell line)
Kind of data set: CXCR4-dependent MOLT-4 migration to CXCL12. It counts as cell-based. The settings on record: MOLT4 human T-cell line; 1 nM CXCL12. The protocol:
MOLT4 cell ctx (human T-cell line) and 1 nM CXCL12 were used.

Data set [2] addresses T4, huCMKLR1 (Homo sapiens, UniProt Q99788).
T4 sequence (Q99788 1-373): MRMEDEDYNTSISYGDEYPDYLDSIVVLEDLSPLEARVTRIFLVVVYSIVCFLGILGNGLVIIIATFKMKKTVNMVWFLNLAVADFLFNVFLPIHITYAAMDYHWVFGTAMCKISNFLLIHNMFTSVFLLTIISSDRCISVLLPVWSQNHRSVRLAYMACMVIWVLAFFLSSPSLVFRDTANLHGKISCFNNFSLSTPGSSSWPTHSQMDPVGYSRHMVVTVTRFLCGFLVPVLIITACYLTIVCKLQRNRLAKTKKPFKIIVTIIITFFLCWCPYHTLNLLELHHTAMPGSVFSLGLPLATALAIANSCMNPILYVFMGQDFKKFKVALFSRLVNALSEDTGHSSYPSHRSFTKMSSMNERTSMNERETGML
Nature of the data set: Inhibition of chemerin-triggered huCMKLR1 association with beta-arrestin2 (PathHunter CHO-K1 enzyme fragment complementation). Type of data set: cell-based. Further details: host or cells: CHO-K1. The source says:
With reference to FIG. 1, early event in receptor internalization is ligand-triggered association with beta-arrestin2. This process turns off receptor signaling. Enzyme complementation can be used to measure CMKLR1 association with beta-arrestin2. In this assay β-Galactosidase is split into two complementary enzyme fragments, one is attached to CMKLR1, the other to beta-arrestin2. If ligand interaction with CMKLR1 promotes its association with β-arrestin2, the enzyme fragments join and become active. An assay, such as PathHunter® CHO-K1 CMKLR1 β-Arrestin GPCR Assays (DiscoverX, Inc., Fremont, Calif.) can provide a method for monitoring activation of the CMKLR1 GPCR receptor through arrestin recruitment in live cells. CMKLR1 cells are engineered to co-express a ProLink (PK)-tagged GPCR and the Enzyme Acceptor (EA)-tagged β-Arrestin fusion proteins. Upon GPCR activation, the two enzyme fragments are brought together, forming an active β-Gal enzyme through Enzyme Fragment Complementation (EFC). A LOPAC (Library of Pharmacologically Active Compounds) library (Sigma-Aldrich, St. Louis, Mo.) was screened for inhibition of chemerin-triggered […]1 association with βARR. Three hits were obtained from a primary screen of LOPAC library. […] The assay was performed in both buffer (10% FBS) or 100% human serum.

The subject of data set [3] is leukocyte infiltration of CNS in EAE. Nature of the data set: Leukocyte infiltration of CNS in EAE. The settings on record: EAE mice. It counts as in vivo, mouse.
The target of the next data set is T5, C5aR (Mus musculus, UniProt P30993).
T5 construct: endogenous in cells; host or cells: mouse bone-marrow neutrophils
T5 sequence (P30993 1-351): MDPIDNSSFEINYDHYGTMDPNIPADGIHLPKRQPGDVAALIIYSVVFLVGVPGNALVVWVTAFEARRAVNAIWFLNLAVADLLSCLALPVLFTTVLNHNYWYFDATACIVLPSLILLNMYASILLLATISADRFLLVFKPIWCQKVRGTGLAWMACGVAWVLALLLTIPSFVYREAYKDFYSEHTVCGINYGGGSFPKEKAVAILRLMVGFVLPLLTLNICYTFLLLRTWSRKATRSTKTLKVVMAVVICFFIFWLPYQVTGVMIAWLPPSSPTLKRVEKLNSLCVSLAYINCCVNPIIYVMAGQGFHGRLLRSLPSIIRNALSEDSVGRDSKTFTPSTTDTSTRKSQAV
Kind of data set: C5aR-dependent mouse BM neutrophil chemotaxis to C5a. Type of data set: cell-based. The settings on record: 100 nM C5a. The protocol: Neutrophil ctx and 100 nM C5a were used.

Data set [4] addresses T4, huCMKLR1. Kind of data set: Inhibition of chemerin-triggered human CMKLR1/L1.2 cell migration. It counts as cell-based. Further details: expressed in transfected cells; host or cells: L1.2 cells. The settings on record: 1 nM chemerin. The protocol:
2-(alpha-Naphthoyl)ethyltrimethyl ammonium iodide (aNETA) was tested for inhibition of chemerin-triggered human CMKLR1/L1.2 cell migration. huCMKLR1/L1.2 ctx and 1 nM chemerin were used. The assay was performed in 0.5% BSA, buffer (10% FBS), or 100% human serum.

A further data set concerns the target T6, CCR9 (Homo sapiens, UniProt P51686).
T6 construct: endogenous in cells; host or cells: MOLT-4 (human T-cell line)
T6 sequence (P51686 1-369): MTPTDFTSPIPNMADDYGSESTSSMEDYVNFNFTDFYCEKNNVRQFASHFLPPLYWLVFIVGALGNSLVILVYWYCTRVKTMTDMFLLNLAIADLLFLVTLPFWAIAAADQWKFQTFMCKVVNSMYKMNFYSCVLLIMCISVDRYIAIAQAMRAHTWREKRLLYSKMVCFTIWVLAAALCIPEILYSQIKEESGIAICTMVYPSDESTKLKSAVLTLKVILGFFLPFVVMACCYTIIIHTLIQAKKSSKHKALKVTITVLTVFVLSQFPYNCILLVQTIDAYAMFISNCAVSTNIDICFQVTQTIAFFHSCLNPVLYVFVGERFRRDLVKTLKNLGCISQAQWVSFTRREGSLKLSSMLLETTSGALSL
Nature of the data set: CCR9-dependent MOLT-4 migration to CCL25. It counts as cell-based. The settings on record: MOLT4 human T-cell line; 250 nM TECK. The protocol: MOLT4 cell ctx (human T-cell line) and 250 nM TECK were used.

The subject of data set [5] is experimental autoimmune encephalomyelitis (EAE). Kind of data set: Clinical EAE in vivo (MOG 35-55 induced). The settings on record: mouse; for Onset of EAE / Animals that developed EAE (disease incidence): subcutaneous; for Onset of EAE: 10% captisol.
For data set [6], the system named is huCMKLR1/βARR CHO, huCMKLR1/L1.2 cell lines and splenocytes. Kind of data set: In vitro cytotoxicity, annexin V FITC / propidium iodide assay. It counts as cell-based. The settings on record: 90 minute incubation at 37° C., huCMKLR1/L1.2, splenocytes.
Method: The in vitro cytotoxicity of aNETA can be determined with an annexin V FITC assay kit. […] The analysis can be performed with a FITC-conjugated annexin-V, which has a strong affinity for extracellular phosphatidylserines, and the fluorescent intercalating agent propidium iodide (PI).
With reference to FIG. 11, cell lines (huCMKLR1/βARR CHO and huCMKLR1/L1.2) and splenocytes were used. aNETA was tested with 90 minute incubation at 37° C.
Data set [7] has as its target T7, CXCR4 (Mus musculus, UniProt P70658).
T7 construct: endogenous in cells; host or cells: mouse splenocytes
Kind of data set: CXCR4-dependent mouse splenocyte migration to CXCL12. The settings on record: 100 nM CXCL12. Type of data set: cell-based. The protocol: Splenocyte ctx and 100 nM CXCL12 were used.

The next data set addresses T8, FPR (Mus musculus, UniProt P33766).
T8 construct: endogenous in cells; host or cells: mouse bone-marrow neutrophils
T8 sequence (P33766 1-364): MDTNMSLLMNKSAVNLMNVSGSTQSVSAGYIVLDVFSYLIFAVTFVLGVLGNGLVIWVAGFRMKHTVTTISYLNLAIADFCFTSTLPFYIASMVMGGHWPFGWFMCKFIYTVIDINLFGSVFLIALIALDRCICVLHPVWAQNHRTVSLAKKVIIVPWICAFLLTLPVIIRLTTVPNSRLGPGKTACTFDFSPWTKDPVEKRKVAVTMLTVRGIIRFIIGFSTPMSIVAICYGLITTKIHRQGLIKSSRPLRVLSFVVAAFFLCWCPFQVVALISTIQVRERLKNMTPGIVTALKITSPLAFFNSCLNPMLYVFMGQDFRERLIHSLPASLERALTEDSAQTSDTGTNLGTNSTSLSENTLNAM
Nature of the data set: FPR-dependent mouse BM neutrophil chemotaxis to fMLP. It counts as cell-based. The settings on record: 100 nM fMLP. The protocol:
Neutrophil ctx and 100 nM fMLP were used.

Each structure is given as a SMILES string.

T7 sequence (P70658 whole entry): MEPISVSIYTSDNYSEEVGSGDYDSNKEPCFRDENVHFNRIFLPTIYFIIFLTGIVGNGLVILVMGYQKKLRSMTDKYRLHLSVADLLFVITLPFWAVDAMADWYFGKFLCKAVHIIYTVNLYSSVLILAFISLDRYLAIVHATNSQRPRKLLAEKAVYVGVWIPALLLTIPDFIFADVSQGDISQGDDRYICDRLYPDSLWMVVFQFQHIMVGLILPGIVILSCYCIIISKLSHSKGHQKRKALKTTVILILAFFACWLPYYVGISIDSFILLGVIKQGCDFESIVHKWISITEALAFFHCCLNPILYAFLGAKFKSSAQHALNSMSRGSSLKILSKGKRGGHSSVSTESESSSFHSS
T3 sequence (P61073 whole entry): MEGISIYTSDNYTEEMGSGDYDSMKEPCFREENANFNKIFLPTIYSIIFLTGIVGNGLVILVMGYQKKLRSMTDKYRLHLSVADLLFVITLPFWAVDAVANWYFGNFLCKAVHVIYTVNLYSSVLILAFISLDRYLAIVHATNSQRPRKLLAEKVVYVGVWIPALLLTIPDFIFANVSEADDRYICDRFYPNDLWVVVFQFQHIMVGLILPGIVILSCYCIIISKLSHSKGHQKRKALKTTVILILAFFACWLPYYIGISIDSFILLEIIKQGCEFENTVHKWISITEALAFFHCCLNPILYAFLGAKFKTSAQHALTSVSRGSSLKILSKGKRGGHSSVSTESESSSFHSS

A word on the IC50: it is the concentration at which inhibition is half-maximal. In the case of `C[N+](C)(C)CCC(=O)c1cccc2ccccc12.[I-]` [aNETA, 2-(alpha-naphthoyl)ethyltrimethyl ammonium iodide], the “Inhibition of CCR7-dependent mouse splenocyte migration to CCL19” value on CCR7 was “does not inhibit”. Besides, the IC50 against mouse CMKLR1 (0.5% BSA) was 9600 nM; against mouse CMKLR1 (100% human serum), 1200 nM; against mouse CMKLR1 (buffer (10% FBS)), 1100 nM; at huCMKLR1 [2] (100% human serum, huCMKLR1/βARR CHO cells, 7 nM chemerin, read-out: IC50, inhibition of chemerin-triggered huCMKLR1 association with βARR), 620 nM; on huCMKLR1 [2] (buffer (10% FBS), huCMKLR1/βARR CHO cells, 7 nM chemerin, read-out: IC50, inhibition of chemerin-triggered huCMKLR1 association with βARR) it was 350 nM; on huCMKLR1 [2] (in vitro cell-based bioassay, read-out: IC50, inhibition of chemerin mediated beta-arrestin2 association with CMKLR1) it was around 350 nM. The IC50 is 1200 nM on huCMKLR1 [4] (0.5% BSA), 1300 nM against huCMKLR1 [4] (100% human serum) and 1200 nM on huCMKLR1 [4] (buffer (10% FBS)). Besides, the “Inhibition of CXCR4-dependent MOLT-4 migration to CXCL12” value at CXCR4 [1] was “does not inhibit”. In addition, in [3] (daily 10 mg/kg), the “Leukocyte infiltration of the CNS compared to vehicle” value is “fewer leukocytes present”. Further, in [3] (daily 10 mg/kg and 3 mg/mg), the “Leukocytes in the spleen compared to vehicle” value was “more leukocytes present”. The “Inhibition of C5aR-dependent mouse BM neutrophil chemotaxis to C5a” value on C5aR is “does not inhibit”. Besides, the “Inhibition of CCR9-dependent MOLT-4 migration to CCL25” value on CCR9 is recorded as “does not inhibit”. The “Onset of EAE” value in data set [5] (1 mg/kg daily) was 17.8 days post-immunization; in data set [5] (10 mg/kg daily) it was 26 days post-immunization. Besides, the “Animals that developed EAE (disease incidence)” value in data set [5] (3 mg/kg daily, 3/16) was 19%; in data set [5] (10 mg/kg daily, 1/16), 7%. Further, in data set [5] (10 mg/kg s.c. daily for 8 days, then every other day), the “Effect on onset of EAE” value is “significantly delayed”. Moreover, the “In vitro cytotoxicity (annexin V / PI)” value in data set [6] was “does not appear to be acutely toxic”. Moreover, the “Inhibition of CXCR4-dependent mouse splenocyte migration to CXCL12” value at CXCR4 [7] is on record as “does not inhibit”. Also, the “Inhibition of FPR-dependent mouse BM neutrophil chemotaxis to fMLP” value on FPR is “does not inhibit”.
